# Measurements: PMC7076013 (Scientific Reports, 2020)
# Test system: A375, human melanoma
# Experiment: MTT cell viability, A375
# Assay type: cell-based
# Conditions: 48 h
# Procedure: (§1) Both melanoma and colon cancer are tumor types tightly connected with inflammation, while the expression of COX-2 in the selected cell lines was highly variable. Since a lot of discrepancies were found in the literature concerning the expression of this enzyme[5],[48]–[53], both COX-1 and COX-2 expression was analyzed by Western blot. […] The cells were treated with a wide range of doses of 4a–c, 5, and 6 for 48 h and cell viability was determined by MTT (3-(4,5-dimethylthiazol-2-yl)-2,5-diphenyltetrazolium bromide) and CV (crystal violet) assays. The obtained IC50 values were similar for both assays (Table 1).
# (§2) Reagents were obtained from Sigma (St. Louis, MO) unless indicated otherwise. Annexin V - FITC (AnnV) was acquired from Biotium (Hayward, CA) and Apostat from R&D (R&D S ystems, Minneapolis, MN USA). […] After being detached b y tr ypsinization, cells were seeded in defined number as follows: 2.5 × 10^3 cells/well in 96-well plates for viability assessment and 2 × 10^4 cells/well in 24-well plates for flow cytometry. […]
# (§3) Committee at IBISS (02- 09/1 6). Cells were counted and seeded in 96-well plates and incubat ed overnight. Before treatment, non- adherent cells were removed. Compounds 4a- c, 5 and 6 were dissolved in DMSO and stored at −20 °C for a m onth. Working solutions were freshl y prepared in 10% FCS-RPMI-1640. Controls were treated with culture medium containing the equivalent […]
# (§4) 3.2. Cell viability tests.
# (§5) The number of viable cel ls in culture was estimated by the MTT (3-(4,5- dimethylthiazol- 2-yl ) - 2,5- diphenyltetrazolium bromide) and CV (crystal violet) tests. Cells were incubated in the presence of compounds 4a- c, 5 and 6 for 48 h, then the viability was measured as described.4 […]
# (§6) The results were ex pressed as a p er centage of a v alue obtained for the untr eated control cells that was arbitrarily set to be 100%. A non- linear regression analysis of obtained results was done b y using Gr aphPad Prism software to calculat e IC50 values. […]
row,Substance,IC50 [µM]
1,"4-[4-(hydroxymethyl)phenyl]-3-(1,2-dicarba-closo-dodecaboranyl)furan-2(5H)-one [Compound 4c]",17.9 ± 1.26
2,"4-[4-(methylnitrooxy)phenyl]-3-(1,2-dicarba-closo-dodecaboranyl)furan-2(5 H)-one [Compound 5]",4.25 ± 1.65
3,"4-[4-(methylsulfonyl)phenyl]-3-(1,2-dicarba-closo-dodecaboranyl)furan-2(5H)-one [Compound 4b]",16.9 ± 1.35
4,"4-phenyl-3-(1,2-dicarba-closo-dodecaboranyl)furan-2(5 H)-one [Compound 4a]",20.2 ± 1.26
5,"R,S-7-(2-oxo-4-(4-sulfamoylphenyl)-2,5-dihydrofuran-3-yl)-7,8-dicarba-nido-dodeca-hydroundecaborate(–1) sodium [Compound 6]",> 50

# Test system: SW480, human colon carcinoma
# Experiment: MTT cell viability, SW480
# Assay type: cell-based
# Conditions: 48 h
# Procedure: as §1
# (§7) Reagents were obtained from Sigma (St. Louis, MO) unless indicated otherwise. […]
# S ystems, Minneapolis, MN USA). […] After being detached b y tr ypsinization, cells were seeded in defined number as follows: 2.5 × 10^3 cells/well in 96-well plates for viability assessment and 2 × 10^4 cells/well in 24-well plates for flow cytometry. […]
# Before treatment, non- adherent cells were removed. Compounds 4a- c, 5 and 6 were dissolved in DMSO and stored at −20 °C for a m onth. Working solutions were freshl y prepared in 10% FCS-RPMI-1640. Controls were treated with culture medium containing the equivalent […]
# as §4, §5, §6
row,Substance,IC50 [µM]
1,"4-[4-(hydroxymethyl)phenyl]-3-(1,2-dicarba-closo-dodecaboranyl)furan-2(5H)-one [Compound 4c]",24.2 ± 1.05
2,"4-[4-(methylnitrooxy)phenyl]-3-(1,2-dicarba-closo-dodecaboranyl)furan-2(5 H)-one [Compound 5]",16.6 ± 1.01
3,"4-[4-(methylsulfonyl)phenyl]-3-(1,2-dicarba-closo-dodecaboranyl)furan-2(5H)-one [Compound 4b]",42.5
4,"4-phenyl-3-(1,2-dicarba-closo-dodecaboranyl)furan-2(5 H)-one [Compound 4a]",22.8 ± 0.7
5,"R,S-7-(2-oxo-4-(4-sulfamoylphenyl)-2,5-dihydrofuran-3-yl)-7,8-dicarba-nido-dodeca-hydroundecaborate(–1) sodium [Compound 6]",> 50

# Target: T1, ovine COX-1 (Ovis aries, UniProt P05979)
# T1 construct: purchased Cayman Chemical Item No. 700100 (assay kit)
# T1 sequence (P05979 25-600): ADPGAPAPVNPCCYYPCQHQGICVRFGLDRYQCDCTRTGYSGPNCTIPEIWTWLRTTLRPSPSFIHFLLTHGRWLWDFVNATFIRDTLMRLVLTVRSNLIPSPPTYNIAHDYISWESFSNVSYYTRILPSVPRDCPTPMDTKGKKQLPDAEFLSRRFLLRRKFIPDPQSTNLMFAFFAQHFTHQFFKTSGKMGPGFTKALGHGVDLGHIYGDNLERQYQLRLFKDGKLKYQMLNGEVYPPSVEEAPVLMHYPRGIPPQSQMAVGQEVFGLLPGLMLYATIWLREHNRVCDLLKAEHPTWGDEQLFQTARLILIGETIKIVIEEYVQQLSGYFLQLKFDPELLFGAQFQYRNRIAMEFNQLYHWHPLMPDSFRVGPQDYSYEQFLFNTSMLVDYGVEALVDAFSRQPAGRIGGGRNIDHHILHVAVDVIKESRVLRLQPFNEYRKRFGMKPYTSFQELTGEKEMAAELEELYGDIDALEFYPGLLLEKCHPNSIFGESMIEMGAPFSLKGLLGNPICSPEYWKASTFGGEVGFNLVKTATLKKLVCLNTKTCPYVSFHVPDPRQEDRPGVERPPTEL
# Experiment: COX Fluorescent Inhibitor Screening Assay, COX-1
# Assay type: biochemical
# Conditions: ovine COX-1, Cayman kit 700100
# Procedure: The synthesized compounds were tested in vitro for their potential to inhibit ovine COX-1 and human recombinant COX-2.
# *All compounds were measured with the Cytation 5 plate reader and the "COX Fluorescent Inhibitor […]
# chemi cals, USA) " according to the manufacturer's
# Error bars indicate standard error mean (SEM) obtained from two measurements at each concentration.
# (1 picture or pasted object on this page, not shown here)
row,Substance,IC50 [µM]
1,"4-[4-(hydroxymethyl)phenyl]-3-(1,2-dicarba-closo-dodecaboranyl)furan-2(5H)-one [Compound 4c]",> 100
2,"4-[4-(methylnitrooxy)phenyl]-3-(1,2-dicarba-closo-dodecaboranyl)furan-2(5 H)-one [Compound 5]",> 100
3,"4-[4-(methylsulfonyl)phenyl]-3-(1,2-dicarba-closo-dodecaboranyl)furan-2(5H)-one [Compound 4b]",> 100
4,"4-phenyl-3-(1,2-dicarba-closo-dodecaboranyl)furan-2(5 H)-one [Compound 4a]",> 100
5,"R,S-7-(2-oxo-4-(4-sulfamoylphenyl)-2,5-dihydrofuran-3-yl)-7,8-dicarba-nido-dodeca-hydroundecaborate(–1) sodium [Compound 6]",> 100

# Test system: A375 cells
# Experiment: Light microscopy of A375 cultures (oval vs. fibroblast-like cells)
# Assay type: cell-based, human
# Conditions: A375, treated cells, 48 h; control 46 ± 2.8
# Description: It is known that the A375 cell line has a heterogeneous morphology with a subpopulation of highly metastatic oval cells. […] Thus, it can be concluded that compound 5 affected the two populations in different manners with a stronger effect on the metastatic oval cells.
row,Substance,% of oval cells [%]
1,"4-[4-(methylnitrooxy)phenyl]-3-(1,2-dicarba-closo-dodecaboranyl)furan-2(5 H)-one [Compound 5]",28 ± 2.6

# Same assay, conditions: A375, treated cells, 48 h; control 54 ± 3.2
row,Substance,% of fibroblast-like cells [%]
1,"4-[4-(methylnitrooxy)phenyl]-3-(1,2-dicarba-closo-dodecaboranyl)furan-2(5 H)-one [Compound 5]",72 ± 7.4

# Test system: SW480, human colon carcinoma
# Experiment: CV (crystal violet) cell viability, SW480
# Assay type: cell-based
# Conditions: 48 h
# Procedure: as §1, §7
# S ystems, Minneapolis, MN USA). […] After being detached b y tr ypsinization, cells were seeded in defined number as follows: 2.5 × 10^3 cells/well in 96-well plates for viability assessment and 2 × 10^4 cells/well in 24-well plates for flow cytometry. Peritoneal resident […]
# (§8) for Biolo gical Research “Siniša Stanković” b y peritoneal lav age with an ice- cold phosphate buffer solution (PBS). The handling of animals and protocol for obtaining cells is in agreement with the rules of the European Union and approved by the Institutional Animal Care and Use Committee at IBISS (02- 09/1 6). Cells were counted and seeded in 96-well plates and incubat ed overnight. Before treatment, non- adherent cells were removed. Compounds 4a- c, 5 and 6 were dissolved in DMSO and stored at −20 °C for a m onth. Working solutions were freshl y prepared in 10% FCS-RPMI-1640. Controls were treated with culture medium containing the equivalent […]
# as §4, §5, §6
row,Substance,IC50 [µM]
1,"4-[4-(hydroxymethyl)phenyl]-3-(1,2-dicarba-closo-dodecaboranyl)furan-2(5H)-one [Compound 4c]",26.8 ± 2.81
2,"4-[4-(methylnitrooxy)phenyl]-3-(1,2-dicarba-closo-dodecaboranyl)furan-2(5 H)-one [Compound 5]",8.6 ± 0.21
3,"4-[4-(methylsulfonyl)phenyl]-3-(1,2-dicarba-closo-dodecaboranyl)furan-2(5H)-one [Compound 4b]",35.9
4,"4-phenyl-3-(1,2-dicarba-closo-dodecaboranyl)furan-2(5 H)-one [Compound 4a]",19 ± 1.91
5,"R,S-7-(2-oxo-4-(4-sulfamoylphenyl)-2,5-dihydrofuran-3-yl)-7,8-dicarba-nido-dodeca-hydroundecaborate(–1) sodium [Compound 6]",> 50

# Same assay, conditions: IC50 macrophages / IC50 cancer
row,Substance,Selectivity index SW480
1,"4-[4-(hydroxymethyl)phenyl]-3-(1,2-dicarba-closo-dodecaboranyl)furan-2(5H)-one [Compound 4c]",2.5
2,"4-[4-(methylnitrooxy)phenyl]-3-(1,2-dicarba-closo-dodecaboranyl)furan-2(5 H)-one [Compound 5]",4.3
3,"4-[4-(methylsulfonyl)phenyl]-3-(1,2-dicarba-closo-dodecaboranyl)furan-2(5H)-one [Compound 4b]",1.8
4,"4-phenyl-3-(1,2-dicarba-closo-dodecaboranyl)furan-2(5 H)-one [Compound 4a]",2.6

# Test system: HCT116, human colon carcinoma
# Experiment: CV (crystal violet) cell viability, HCT116
# Assay type: cell-based
# Conditions: 48 h
# Procedure: as §1
# as §2, with “cytometry. Peritoneal resident” for “cytometry.”
# as §8, §4, §5, §6
row,Substance,IC50 [µM]
1,"4-[4-(hydroxymethyl)phenyl]-3-(1,2-dicarba-closo-dodecaboranyl)furan-2(5H)-one [Compound 4c]",19.2 ± 1.46
2,"4-[4-(methylnitrooxy)phenyl]-3-(1,2-dicarba-closo-dodecaboranyl)furan-2(5 H)-one [Compound 5]",9.95 ± 0.95
3,"4-[4-(methylsulfonyl)phenyl]-3-(1,2-dicarba-closo-dodecaboranyl)furan-2(5H)-one [Compound 4b]",35.9
4,"4-phenyl-3-(1,2-dicarba-closo-dodecaboranyl)furan-2(5 H)-one [Compound 4a]",12.8 ± 0.5
5,"R,S-7-(2-oxo-4-(4-sulfamoylphenyl)-2,5-dihydrofuran-3-yl)-7,8-dicarba-nido-dodeca-hydroundecaborate(–1) sodium [Compound 6]",> 50

# Same assay, conditions: IC50 macrophages / IC50 cancer
row,Substance,Selectivity index HCT116
1,"4-[4-(hydroxymethyl)phenyl]-3-(1,2-dicarba-closo-dodecaboranyl)furan-2(5H)-one [Compound 4c]",3.4
2,"4-[4-(methylnitrooxy)phenyl]-3-(1,2-dicarba-closo-dodecaboranyl)furan-2(5 H)-one [Compound 5]",3.7
3,"4-[4-(methylsulfonyl)phenyl]-3-(1,2-dicarba-closo-dodecaboranyl)furan-2(5H)-one [Compound 4b]",1.8
4,"4-phenyl-3-(1,2-dicarba-closo-dodecaboranyl)furan-2(5 H)-one [Compound 4a]",3.8

# Test system: 518A2, human melanoma
# Experiment: CV (crystal violet) cell viability, 518A2
# Assay type: cell-based
# Conditions: 48 h
# Procedure: as §1
# as §2, with “cytometry. Peritoneal resident” for “cytometry.”
# as §8, §4, §5, §6
row,Substance,IC50 [µM]
1,"4-[4-(hydroxymethyl)phenyl]-3-(1,2-dicarba-closo-dodecaboranyl)furan-2(5H)-one [Compound 4c]",41.2 ± 2.12
2,"4-[4-(methylnitrooxy)phenyl]-3-(1,2-dicarba-closo-dodecaboranyl)furan-2(5 H)-one [Compound 5]",5.5 ± 0.57
3,"4-[4-(methylsulfonyl)phenyl]-3-(1,2-dicarba-closo-dodecaboranyl)furan-2(5H)-one [Compound 4b]",14.8 ± 0.92
4,"4-phenyl-3-(1,2-dicarba-closo-dodecaboranyl)furan-2(5 H)-one [Compound 4a]",21.4 ± 0.42
5,"R,S-7-(2-oxo-4-(4-sulfamoylphenyl)-2,5-dihydrofuran-3-yl)-7,8-dicarba-nido-dodeca-hydroundecaborate(–1) sodium [Compound 6]",49.7 ± 0.42

# Same assay, conditions: IC50 macrophages / IC50 cancer
row,Substance,Selectivity index 518A2
1,"4-[4-(hydroxymethyl)phenyl]-3-(1,2-dicarba-closo-dodecaboranyl)furan-2(5H)-one [Compound 4c]",1.6
2,"4-[4-(methylnitrooxy)phenyl]-3-(1,2-dicarba-closo-dodecaboranyl)furan-2(5 H)-one [Compound 5]",6.7
3,"4-[4-(methylsulfonyl)phenyl]-3-(1,2-dicarba-closo-dodecaboranyl)furan-2(5H)-one [Compound 4b]",4.5
4,"4-phenyl-3-(1,2-dicarba-closo-dodecaboranyl)furan-2(5 H)-one [Compound 4a]",2.3

# Test system: A375, human melanoma
# Experiment: CV (crystal violet) cell viability, A375
# Assay type: cell-based
# Conditions: 48 h
# Procedure: as §1
# as §2, with “cytometry. Peritoneal resident” for “cytometry.”
# as §8, §4, §5, §6
row,Substance,IC50 [µM]
1,"4-[4-(hydroxymethyl)phenyl]-3-(1,2-dicarba-closo-dodecaboranyl)furan-2(5H)-one [Compound 4c]",10.5 ± 0.75
2,"4-[4-(methylnitrooxy)phenyl]-3-(1,2-dicarba-closo-dodecaboranyl)furan-2(5 H)-one [Compound 5]",4.7 ± 0.3
3,"4-[4-(methylsulfonyl)phenyl]-3-(1,2-dicarba-closo-dodecaboranyl)furan-2(5H)-one [Compound 4b]",14.1 ± 0.75
4,"4-phenyl-3-(1,2-dicarba-closo-dodecaboranyl)furan-2(5 H)-one [Compound 4a]",16 ± 1.65
5,"R,S-7-(2-oxo-4-(4-sulfamoylphenyl)-2,5-dihydrofuran-3-yl)-7,8-dicarba-nido-dodeca-hydroundecaborate(–1) sodium [Compound 6]",> 50

# Same assay, conditions: IC50 macrophages / IC50 cancer
row,Substance,Selectivity index A375
1,"4-[4-(hydroxymethyl)phenyl]-3-(1,2-dicarba-closo-dodecaboranyl)furan-2(5H)-one [Compound 4c]",6.3
2,"4-[4-(methylnitrooxy)phenyl]-3-(1,2-dicarba-closo-dodecaboranyl)furan-2(5 H)-one [Compound 5]",7.9
3,"4-[4-(methylsulfonyl)phenyl]-3-(1,2-dicarba-closo-dodecaboranyl)furan-2(5H)-one [Compound 4b]",4.7
4,"4-phenyl-3-(1,2-dicarba-closo-dodecaboranyl)furan-2(5 H)-one [Compound 4a]",3.1

# Test system: 518A2, human melanoma
# Experiment: MTT cell viability, 518A2
# Assay type: cell-based
# Conditions: 48 h
# Procedure: as §1, §2, §3, §4, §5, §6
row,Substance,IC50 [µM]
1,"4-[4-(hydroxymethyl)phenyl]-3-(1,2-dicarba-closo-dodecaboranyl)furan-2(5H)-one [Compound 4c]",36.35 ± 0.21
2,"4-[4-(methylnitrooxy)phenyl]-3-(1,2-dicarba-closo-dodecaboranyl)furan-2(5 H)-one [Compound 5]",5.15 ± 0.64
3,"4-[4-(methylsulfonyl)phenyl]-3-(1,2-dicarba-closo-dodecaboranyl)furan-2(5H)-one [Compound 4b]",13.8 ± 0.21
4,"4-phenyl-3-(1,2-dicarba-closo-dodecaboranyl)furan-2(5 H)-one [Compound 4a]",18.9 ± 1.63
5,"R,S-7-(2-oxo-4-(4-sulfamoylphenyl)-2,5-dihydrofuran-3-yl)-7,8-dicarba-nido-dodeca-hydroundecaborate(–1) sodium [Compound 6]",36.9 ± 0.49
